In assay [1] the target is hKOR (Homo sapiens, UniProt P41145). The assay is described as follows: CAMYEL BRET antagonism assay at hKOR (inhibition of U-50,488). It is filed as cell-based. Conditions: for raw BRET response, antagonist activity at the hKOR (Supplementary Figure 10A): vs EC80 U50,488, replicate raw values. A general note: In BRET a luciferase serves as donor, and the signal depends on an acceptor being close.

The target of assay [2] is T1, rKOR (Rattus norvegicus, UniProt P34975).
T1 construct: expressed in transfected cells
T1 sequence (P34975 whole entry): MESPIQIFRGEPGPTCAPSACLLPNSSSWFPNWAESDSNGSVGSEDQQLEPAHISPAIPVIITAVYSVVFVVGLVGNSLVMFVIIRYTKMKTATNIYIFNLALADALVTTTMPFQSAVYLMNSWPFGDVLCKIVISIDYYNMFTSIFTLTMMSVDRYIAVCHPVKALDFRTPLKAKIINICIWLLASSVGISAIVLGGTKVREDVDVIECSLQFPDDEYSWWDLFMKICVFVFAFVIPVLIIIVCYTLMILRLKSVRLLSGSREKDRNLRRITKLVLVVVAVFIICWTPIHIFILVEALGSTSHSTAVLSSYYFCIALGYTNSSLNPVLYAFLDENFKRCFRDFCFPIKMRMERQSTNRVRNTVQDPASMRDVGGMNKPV
The assay is described as follows: CAMYEL BRET antagonism assay at rKOR (inhibition of U-50,488). It is filed as cell-based. Conditions: inhibition of reference agonist U50,488 (EC80).

The test system of assay [3] is WT C57 and MOR KO mice. The assay is described as follows: Tail-flick in wild-type and MOR KO mice. Conditions: individual animals. It is filed as in vivo, mouse. On the procedure:
CD1 mice (n = 10), at peak analgesic time point. […] Dose–response curves of 22 (s.c.), in the tail-flick assay was evaluated 15 min post drug administration in WT, C57 mice (n = 8) and MOR KO mice (n = 5). Each point represents mean ± SEM.
To confirm that the low-efficacy analgesia is driven by MOR, and no other targets or mechanisms (e.g., other opioid receptors or non-opioid off-targets), we performed the mouse tail-flick assay in wild-type (WT), and MOR knockout (MOR KO) mice with the same genetic background (Fig. 9e).
For analgesic testing in KO animals, wild-type, male C57BL/6 mice (22–33 g), 10–12 weeks were purchased from the Jackson Lab (Bar Harbor, ME). These mice were kept at a constant temperature of 22 ± 2 °C, and relative humidity was maintained at 40–50%. Exon-1/Exon-11 MOR-1 KO mice on a C57 background were bred in the Pintar laboratory at Rutgers University. All mice were maintained on a 12-hour light/dark cycle with food and water available ad libitum, and housed in groups of five until testing. All testing was done in the light cycle.
Analgesia was tested in wild-type and MOR KO animals by the radiant heat tail-flick technique using an IITC Model 33 Tail Flick Analgesia Meter as previously described. The intensity was set to achieve a baseline between 2 and 3 s. Tail-flick antinociception was assessed as an increase in baseline latency, with a maximal 10 s latency to minimize damage to the tail. Data were analyzed as percent maximal effect, % MPE, which was calculated according to the formula: % MPE [(observed latency − baseline latency)/(maximal latency − baseline latency)] × 100. Compounds were administered s.c. as indicated in the figures, and analgesia was assessed at the peak effect (15 min). Mice were tested for analgesia with cumulative subcutaneous doses of the drug until the mouse can withstand the maximal latency. Once the mouse reached the maximal latency, the mouse was no longer given higher doses. In vivo experiments were evaluated using GraphPad Prism 8, San Diego, CA as described above. […]
dilution series was prepared for the desired doses of 0.1, 0.3, 1, 3, and 10 mg/kg (concentrations 0.01 mg/mL, 0.03 mg/mL, 0.1 mg/mL, 0.3 mg/mL, and 1 mg/mL respectively). Solutions were filtered through a PTFE 0.45μm syringe filter and administered s.c. at a max volume of 300μL.
Tail Flick (Dose – response)
Tail flick antinociception was determined using the radiant heat tail flick technique using an Ugo Basile model 37360 instrument as previously described.21,22 The intensity was set to achieve a baseline between 2 and 3 s. Baseline latencies were determined before experimental treatments for all mice. Tail flick antinociception was assessed as an increase in baseline latency, with a maximal 15 s latency to minimize damage to the tail. Data were analyzed as percent maximal effect, %MPE, and was calculated according to the formula: % MPE = [(observed latency – baseline latency)/(maximal latency – baseline latency)] × 100.
Compounds were injected subcutaneously (s.c.) and antinociception was assessed at the peak effect. Mice were tested for analgesia with cumulative subcutaneous doses of the drug until the mouse can withstand the maximal latency. Once the mouse reached the maximal latency, the mouse was no longer given higher doses. The analgesia experiments were performed by blinding the experimenter to the identity of 7OH versus 11-F-7OH. In vivo experiments were evaluated using GraphPad Prism 8, San Diego, CA as described […]
Analgesia was tested in wild-type and MOR KO animals by the radiant heat tail-flick technique using an IITC Model 33 Tail Flick Analgesia Meter as previously described.23 The intensity was set to achieve a baseline between 2 and 3 s. Tail flick antinociception was assessed as an increase in baseline latency, with a maximal 10 s latency to minimize damage to the tail. Data were analyzed as percent maximal effect, %MPE, which was calculated according to the formula: % MPE [(observed latency − baseline […]

“And” between values parts separate entries of the source, which are not always exact repeats. Identical values can stand only once.

hKOR, sequence (P41145 whole entry): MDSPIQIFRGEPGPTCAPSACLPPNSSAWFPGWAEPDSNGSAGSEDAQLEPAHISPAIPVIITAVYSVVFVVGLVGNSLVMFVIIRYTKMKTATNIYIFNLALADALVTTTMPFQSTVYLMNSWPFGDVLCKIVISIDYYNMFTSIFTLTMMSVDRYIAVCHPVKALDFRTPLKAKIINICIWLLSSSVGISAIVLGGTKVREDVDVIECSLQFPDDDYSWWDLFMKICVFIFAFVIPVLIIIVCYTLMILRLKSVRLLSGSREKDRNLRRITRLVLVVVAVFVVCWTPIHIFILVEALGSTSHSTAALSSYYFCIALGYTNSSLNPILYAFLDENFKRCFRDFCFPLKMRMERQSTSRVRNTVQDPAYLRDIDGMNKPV

With `CC[C@@H]1CN2CC[C@@]3(O)C(=Nc4cc(Br)cc(OC)c43)[C@@H]2C[C@@H]1/C(=C\OC)C(=O)OC` [11-Br-7OH (24), 11-Br-7OH], the “raw BRET response, antagonist activity at the hKOR (Supplementary Figure 10A)” value in assay [1] (Log[drug] (M) -5) was 0.01109 and 0.005199 and -0.00757 and 0.006133 and 0.001515 and 0.001933 and 0.02329 and 0.01475 and 0.01349; in assay [1] (Log[drug] (M) -6), 0.0143 and 0.01072 and 0.01916 and 0.07074 and 0.07832 and 0.07872 and 0.07001 and 0.07357 and 0.05372; in assay [1] (Log[drug] (M) -7), 0.06437 and 0.07728 and 0.08334 and 0.1589 and 0.1581 and 0.1664 and 0.1453 and 0.1454 and 0.1482; in assay [1] (Log[drug] (M) -8), 0.1403 and 0.1362 and 0.1374 and 0.1753 and 0.1713 and 0.1791; in assay [1] (Log[drug] (M) -9), 0.09403 and 0.08676 and 0.08107 and 0.1704 and 0.1868 and 0.1861 and 0.1635 and 0.1852 and 0.1823; in assay [1] (Log[drug] (M) -10), 0.09782 and 0.1078 and 0.1073 and 0.1956 and 0.1911 and 0.1936 and 0.176 and 0.1692 and 0.1714. Also, in assay [1] (Log[drug] (M) -11), the “raw BRET response, antagonist activity at the hKOR (Supplementary Figure 10A)” value was 0.1073 and 0.09367 and 0.109 and 0.2072 and 0.1833 and 0.1925 and 0.1707 and 0.1895 and 0.1659. In assay [1] (inhibition of reference agonist U50,488 (EC80)), the “antagonism at hKOR” value is “full inhibition”. Moreover, in assay [2], the “antagonism at rKOR” value is reported as “full inhibition”.

Regarding `CC[C@@H]1CN2CC[C@@]3(O)C(=Nc4cc(F)cc(OC)c43)[C@@H]2C[C@@H]1/C(=C\OC)C(=O)OC` [11-F-7OH (22), 11-Fluoro-7-hydroxymitragynine], the “Antinociceptive effect, MOR KO” value was 40.7407 and 22.4138 and -2.941 and 22.6277 and 21.0084 in assay [3] (dose 0.1); 14.0741 and 33.6207 and 22.0588 and 13.1387 and 14.2857 in assay [3] (dose 0.3); 30.3704 and 1.724 and 19.8529 and 38.6861 and -26.8908 in assay [3] (dose 1); 30.3704 and -6.897 and 22.0588 and 27.0073 and 1.681 in assay [3] (dose 3); 100 and 18.1034 and -5.882 and 26.2774 and -0.8403 in assay [3] (dose 10). Also, the “Antinociceptive effect, Wild Type” value in assay [3] (dose 0.1) is 7.432 and 25.9259 and 5.926 and 9.722 and -11.5108 and 0 and 3.521 and -7.971; in assay [3] (dose 0.3), 22.2973 and 19.2593 and 0 and 16.6667 and -0.7194 and 4.895 and -7.746 and 40.5797; in assay [3] (dose 1), 71.6216 and -1.481 and 44.4444 and 10.4167 and 5.036 and 71.3287 and 100 and 14.4927; in assay [3] (dose 3) it was 100 (3×) and 5.185 and 43.7037 and 11.1111 and 41.0072 and -2.899; in assay [3] (dose 10) it was 62.1622 and 30.3704 and 25.1852 and 100 (2×) and 12.2302 and 25.1748 and 47.1014.

Values taken from paper PMC8219695 (Nature Communications, 2021).
